# Experimental data from US12539324B2, “Antimicrobial peptide stimulating sanitizing composition” (GOJO Industries, Inc., priority 2016, dated 2026).
# Experiments:
# Type in all cases: cell-based, human
# [1] = system: HBD-2; assay: HBD-2 ELISA, dose response in NHEK culture medium; details: 2.0 wt. %, vs control culture medium
# Experimental: (§1) To determine the optimal dose of active ingredient, test dose response studies were run using both Decorinyl® and Pamitoyl Pentapeptided-3. These test dose response studies were commissioned to determine the concentration of HBD-2 at various levels of the active ingredients. Neonatal Human Epidermal Keratinocytes (NHEK; Life Technology, Grand Island, NY, USA) were cultured with keratinocyte growth medium (KGM, Medium 154: M-154-500 Life Technology with supplements S-001, Life Technologies). NHEK were seeded into 96-well plates at a density of 10000 cells in 200 μl medium per well. After 48 hours, the cells were incubated with varying concentrations of each ingredient solution in a culture medium (KGM) overnight (16 hours) at 37° C., 5% CO2 and 95% humidity at four replicates for each concentration. Each of these active ingredients were tested at the following weight percents based on the weight of the total culture: 0.02 wt. %, 0.05 wt. %, 0.1 wt. %, 0.2 wt. %, 0.5 wt. %, 1.0 wt. %, 2.0 wt. %. Each of these compositions was compared to a control culture medium.
# HBD-2 was detected using HBD-2 ELISA developing kits (commercially available from Peprotech). […] The results were measured using a colorimeter, absorbance was measured at 450 nanometers (nm) within 30 minutes. […] The concentration of each sample was calculated using ELISA standard curve.
# [2] = system: HBD-3; assay: HBD-3 ELISA, dose response in NHEK culture medium; details: vs control culture medium
# Experimental: as §1, with “of HBD-3” for “of HBD-2”, “supplements 5-001,” for “supplements S-001,”, “ingredients was” for “ingredients were”
# HBD-3 was detected using HBD-3 ELISA developing kits (commercially available from Peprotech). […] The results were measured using a colorimeter, absorbance was measured at 450 nanometers (nm) within 30 minutes. […] The concentration of each sample was calculated using ELISA standard curve.
# [3] = system: HBD-1; assay: HBD-1 ELISA, dose response in NHEK culture medium; details: vs control culture medium
# Experimental: as §1, with “of HBD-1” for “of HBD-2”, “ingredients was” for “ingredients were”
# HBD-1 was detected using HBD-1 ELISA (enzyme-linked immunosorbent assay) developing kits (commercially available from Peprotech). […] The results were measured using a colorimeter, absorbance was measured at 450 nanometers (nm) within 30 minutes. […] The concentration of each sample was calculated using ELISA standard curve.
substance,measurement,setting,value
palmitoyl pentapeptide-3 [Pamitoyl Pentapeptided-3],increase in HBD-2 concentration,[1],2800%
same,increase in HBD-3 concentration,[2]; 1.0 wt. %,1005%
same,increase in HBD-3 concentration,[2]; 2.0 wt. %,1890%
same,increase in HBD-1 concentration,[3]; 1.0 wt. %,311%
same,increase in HBD-1 concentration,[3]; 2.0 wt. %,1561%
